Data from patent publication US6265423A, “Aromatic polycyclic retinoid-type derivatives, method for preparing same, and use thereof for making pharmaceutical and cosmetic compositions” (priority 1996, dated 2001).
Read-outs that look alike come from different tables or passages of the source.

Experiments:
RARα-ERcassette = assay: Transactivation, chimerical receptor RARα-ERcassette (HeLa); format: cell-based; conditions: TTNPB 10^-8 M = 100
From the text: The HeLa cells are co-transfected by a plasmid which codes for a retinoic receptor in which the C domain of bonding to the DNA is substituted by that of the receptor to RE oestrogens, and a plasmid which places the expression of the luciferase under the control of an ERE (Element of Response to Oestrogens). The expressed chimerical receptors are designated as RARα-ERcassette, RARβ-ERcassette, RARγ-ERcassette and RXRα-ERcassette. The A, B, D, E and F regions of the natural receptor are preserved as well as the transcriptional co-operation between the activation domains AF-1 and AF-2. These transitory transfection experiments follow the method of co-precipitation to calcium phosphate. The HeLa cells are co-transfected by […] of plasmid coding for the chimerical receptor, […] of reporter plasmid and […] of expression vector CMV-β-galactosidase used as an internal control of transfection. 24 hours after the transfection, the cells are incubated for 16 hours with the different effectors.
In this type of chimerical receptor, the C domain of bonding to the DNA of RAR is substituted by that of the receptor to the RE oestrogens. The protein obtained is close to the natural RAR receptor and preserves the transcriptional properties of the AF-1 and AF-2 domains. It modulates the transcription by means of an ERE. This RAR-ERcassette model allows one to observe a transcriptional response to a more physiological ligand.

[1] = test system: AP-1, MTLN lineage (MCF-7); assay: Anti-AP-1 effect, MTLN lineage activated by TPA; format: cell-based, human; conditions: for anti-AP-1 effect (in words): TPA-activated MTLN cells
In short: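 Percent inhibition of AP-1-driven luciferase after basal activity deduction, expressed as a range across repeat experiments. Cells: MTLN, an MCF-7 line stably transfected with p(TRE)3-tk-Luc and stimulated with 10^-7 M TPA; tests in duplicate.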

T-47D cells = assay: Effect on oestrogen-induced proliferation of T-47D cells; format: cell-based, human
RARβ-ERcassette = assay: Transactivation, chimerical receptor RARβ-ERcassette (HeLa); format: cell-based; conditions: TTNPB 10^-8 M = 100
In short: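 HeLa cells transiently co-transfected (calcium phosphate) with RAR whose DNA-binding C domain is replaced by the oestrogen receptor's, an ERE-luciferase reporter, and CMV-β-galactosidase as transfection control. Compounds applied 24 h post-transfection for 16 h; luciferase read-out.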

[2] = test system: A-427 human pulmonary cancer cells; assay: MTT test, proliferation of A-427; conditions: for activity at 100 µM / activity at 1 µM / activity at 0.01 µM: Homo sapiens, A-427, 72 h, read-out: level of proliferation; for effect on cellular increase, A-427 (in words): MTT test
[3] = test system: ERE-βGlob-Luc, MELN lineage (MCF-7); assay: Anti-oestrogenic effect, MELN lineage activated by estradiol; format: cell-based, human; conditions: for anti-oestrogenic effect (in words): estradiol-activated MELN cells; for inhibition: 10^-6 M
In short: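 Run in duplicate on estradiol-activated (10^-9 M) MELN cells, MCF-7 stably transfected with ERE-βGlobin-luciferase reporter. Values are percentages of the estradiol response after deducting basal level, defined by 1 μM hydroxytamoxifen.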

[4] = test system: A549 human pulmonary cancer cells; assay: MTT test, proliferation of A549; format: cell-based; conditions: for activity at 0.01 µM / activity at 1 µM / activity at 100 µM: Homo sapiens, read-out: level of proliferation; for effect on cellular increase, A549 (in words): MTT test
Gal4-RARα = assay: Transactivation, chimerical receptor Gal4-RARα (transitory transfection of HeLa); format: cell-based; conditions: 100% = TTNPB 10^-8 M
[5] = test system: RARE, endogenic RAR and RXR receptors, HRL+N lineage; assay: HRL+N transactivation (RARE-luciferase, stably transfected HeLa); format: cell-based; design: Emax: dose or concentration left out as unconfirmed
Experimental: MCF-7 cells and HeLa are cultivated in DMFM with phenol red to which 5% foetal calf serum is added. The T47-D cells are cultivated in RPMI to which 10% foetal calf serum is added. The experimental tests are carried out in DMEM without phenol red to which foetal calf serum treated with dextran carbon is added at 3%. […] The experiments using the different retinoids are carried out sheltered from the light so as to avoid any isomerisation.
Certain properties of the retinoids have been determined using more developed cellular models. These models consist of cellular lineages transfected in a stable fashion by recombinant plasmids which place the expression of the gene of the luciferase under the control of different nuclear response elements. […] The tests carried out in duplicate are described below for each of these models.
The cellular lineages HRLN and HRL+N allow one to study the activation of an RARE by endogenic receptors using ligands at physiological concentrations. These lineages derive from HeLa cells transfected in a stable fashion by a reporter gene which places the expression of the gene of the luciferase under the control of a nuclear response element RARE (RARE3 -tk-Luc). The HeLa cells express all the known receptors of the retinoic acid (RARα,β,γ and RXRα,β,γ) with a predominance of RARα and RXRα. The response element RARE used for the HRLN cells corresponds to the sequence of the natural gene of the RARβ receptor (GGTTCAnnnnnAGTTCA). The HRL+N cells comprise the sequence GAGTGAnnnnnCGGTGA.
The HRL+N lineage allows one to visualise a co-activation of the RAR and RXR receptors at the level of the RAR-RXR hetero-dimer.

Gal4-RARγ = assay: Transactivation, chimerical receptor Gal4-RARγ (transitory transfection of HeLa); format: cell-based; conditions: 100% = TTNPB 10^-8 M
[6] = Homo sapiens, MCF7, read-out: anti-AP-1 effect, inhibition
[7] = Homo sapiens, MCF7, read-out: anti-oestrogenic effect, inhibition
[8] = Homo sapiens, MCF7, cells activated by 10^-9 M estradiol
[9] = Homo sapiens, MCF7, 10^-7 M, cells activated by 10^-9 M estradiol, read-out: anti-oestrogenic effect, inhibition
[10] = A549, 10^-4 M, 72 h, control = 100%
[11] = A549, 10^-6 M, 72 h, control = 100%
[12] = A549, 10^-8 M, 72 h, control = 100%
[13] = Homo sapiens, MCF7, 10^-8 M, cells activated by 10^-9 M estradiol, read-out: anti-oestrogenic effect, inhibition

SMILES	RAR-ERcassette RARα transactivation (RARα-ERcassette; 10^-6 M)	RAR-ERcassette RARα transactivation (RARα-ERcassette; 10^-7 M)	RAR-ERcassette RARα transactivation (RARα-ERcassette; 10^-8 M)	inhibition at 0.01 µM [1, 6]	RAR-ERcassette RARβ transactivation (RARβ-ERcassette; 10^-6 M)	RAR-ERcassette RARβ transactivation (RARβ-ERcassette; 10^-7 M)	RAR-ERcassette RARβ transactivation (RARβ-ERcassette; 10^-8 M)	activity at 100 µM [2]	inhibition at 0.1 µM [3, 7]	inhibition at 0.1 µM [1, 6]	GAL4-RAR RARα transactivation (Gal4-RARα; 10^-6 M)	activity at 1 µM [2]	anti-oestrogenic effect (in words) [3]	effect on cellular increase, A549 (in words) [4]	activity at 0.01 µM [2]	inhibition [3, 8]	inhibition at 0.1 µM [3, 9]	activity at 100 µM [4, 10]	activity at 1 µM [4, 11]	activity at 0.01 µM [4, 12]	further results
CC(C=C/C=C(C)\C=C\C1=C(C)CCCC1(C)C)=CC(=O)O [CB13407, 9-cis retinoic acid, reference compound]	348%	187%	60%	30 to 37%	369%	212%	94%	5.9%	35%	–	–	–	–	–	–	–	–	–	–	–	RAR-ERcassette RARα transactivation (RARα-ERcassette; 10^-9 M): 7%; IC50 (T-47D cells; Homo sapiens, T47D, 168 h, read-out: anti-proliferation effect, T-47D IC50): 25.1 ± 1.4 nM; RAR-ERcassette RARβ transactivation (RARβ-ERcassette; 10^-9 M): 16%; activity at 0.01 µM ([4]; A549, 72 h): 104%; activity at 1 µM ([4]; A549, 72 h): 102%; activity at 100 µM ([4]; A549, 72 h): 38%
CC1=C(/C=C/C(C)=C/C=C/C(C)=C/C(=O)O)C(C)(C)CCC1 [CB16178, all-trans retinoic acid, reference compound]	443%	249%	127%	22 to 33%	475%	270%	128%	1.5%	35%	28 to 44%	108%	68.2%	reduces the cellular growth and the expression of oestrogen-dependent genes	inhibit the proliferation of the A549 lineage at 10^-6 M and 10^-8 M	–	–	–	–	–	–	RAR-ERcassette RARα transactivation (RARα-ERcassette; 10^-9 M): 65%; GAL4-RAR RARα transactivation (Gal4-RARα; 10^-7 M): 102%; GAL4-RAR RARα transactivation (Gal4-RARα; 10^-8 M): 82%; RAR-ERcassette RARβ transactivation (RARβ-ERcassette; 10^-9 M): 93%; Emax ([5]; Homo sapiens, HeLa, read-out: HRL+N transactivation, Emax): 225%; activity at 0.01 µM ([4]; A549, 72 h): 78.8%; activity at 1 µM ([4]; A549, 72 h): 89.2%; activity at 100 µM ([4]; A549, 72 h): 22.3%
CC1(C)CCC(C)(C)c2cc(/C=C(\c3ccc(C(=O)O)cc3)C(F)(F)F)ccc21 [CB36493, (E) 4-[1-trifluoromethyl-2-(5,6,7,8-tetrahydro-5,5,8,8-tetramethyl-2-naphthalenyl)-1-ethenyl]benzoic acid]	91%	15%	1%	–	205%	34%	0%	1.6%	–	–	38%	87.2%	permit a transrepression of a controlled gene by an ERE	–	89.9%	17 to 32%	0%	10.4%	93.7%	98.5%	inhibition at 1 µM ([1]; Homo sapiens, MCF7, 10^-6 M, cells activated by 10^-7 M TPA, range of several experiments): 38 to 46%; inhibition at 0.1 µM ([1]; Homo sapiens, MCF7, 10^-7 M, cells activated by 10^-7 M TPA, range of several experiments, read-out: anti-AP-1 effect, inhibition): 26%; anti-AP-1 effect (in words) [1]: exert an inhibitor effect comparable to that of the effect of CB28628; activity at 1 µM (T-47D cells; Homo sapiens, T47D, 168 h, 10^-6 M, 100% = E2 10^-9 M, 7 days, read-out: growth of T-47D cells): 68 to 78%; GAL4-RAR RARγ transactivation (Gal4-RARγ; 10^-6 M): 50%
C/C(=C\c1cc2c(cc1C)C(C)(C)CCC2(C)C)c1ccc(C(=O)O)cc1 [CB71802]	–	–	–	–	–	–	–	1%	–	–	–	65.6%	–	inhibits the increase of these two pulmonary lineages the most strongly	69.7%	32 to 48%	37%	12.5%	86.3%	80.9%	inhibition at 1 µM (T-47D cells; Homo sapiens, T47D, 168 h, 1 μM (10^-6 M), 7 days, estradiol 10^-9 M, read-out: percentage inhibition of growth, T-47D): 72%; effect on cellular increase, A-427 (in words) [2]: inhibits the increase of these two pulmonary lineages the most strongly; inhibition at 0.01 µM [3, 13]: 5%
C/C(=C\c1ccc2c(c1)C(C)(C)CCC2(C)C)c1ccc(C(=O)Nc2nnn[nH]2)cc1 [CB73364]	74%	–	–	–	118%	–	–	0.1%	–	–	–	87.2%	–	a stimulation of the cellular increase	92.7%	20 to 41%	24%	0%	151%	156%	effect on oestrogen-induced growth, T-47D (in words) (T-47D cells; estradiol 10^-9 M): exerts an effect comparable to TTNPB; inhibition at 0.01 µM [3, 13]: 13%
Cc1cc2c(cc1C(=O)c1ccc(C(=O)O)cc1)C(C)(C)CCC2(C)C [LGD-CB14499, reference compound]	42%	12%	4%	–	130%	58%	10%	–	0%	17 to 30%	17%	–	inactive	–	–	–	–	–	–	–	anti-AP-1 effect (in words) [1]: causes an inhibition of the AP-1 route; GAL4-RAR RARγ transactivation (Gal4-RARγ; 10^-6 M): 13%; GAL4-RAR RARγ transactivation (Gal4-RARγ; 10^-7 M): 0%; GAL4-RAR RARγ transactivation (Gal4-RARγ; 10^-8 M): 0%; GAL4-RAR RARα transactivation (Gal4-RARα; 10^-7 M): 4%; GAL4-RAR RARα transactivation (Gal4-RARα; 10^-8 M): 1%; HRL+N transactivation (in words) [5]: induce a stronger transactivation with the HRL+N cells; inhibition at 1 µM [3, 7]: 0%
C/C(=C\c1ccc(C(=O)O)cc1)c1ccc2c(c1)C(C)(C)CCC2(C)C [TTNPB, reference compound]	–	–	–	26 to 53%	–	–	–	3.6%	–	29 to 54%	–	78.5%	–	–	78.9%	–	–	–	–	–	effect on oestrogen-induced growth, T-47D (in words) (T-47D cells; estradiol 10^-9 M): stronger inhibiting effect than the natural ligands (all-trans RA and 9-cis RA) and than LGD1069; effect on cellular increase, A-427 (in words) [2]: inhibits the A-427 lineage at 10^-6 M and 10^-8 M; inhibition at 0.01 µM [3, 7]: 30 to 41%; anti-oestrogenic effect, inhibition (of the order of) ([3]; MELN, estradiol 10^-9 M): ~40%
